Measurements: BindingDB's records for doi:10.1021/jm00101a006 (University of Illinois, 1992)

Key:
[1] = molecular target: T1, Serine protease 1 (Bos taurus, UniProt P00760); assay: Compound was tested for the rate constant of deacylation against the enzyme trypsin
T1 sequence (P00760 whole entry): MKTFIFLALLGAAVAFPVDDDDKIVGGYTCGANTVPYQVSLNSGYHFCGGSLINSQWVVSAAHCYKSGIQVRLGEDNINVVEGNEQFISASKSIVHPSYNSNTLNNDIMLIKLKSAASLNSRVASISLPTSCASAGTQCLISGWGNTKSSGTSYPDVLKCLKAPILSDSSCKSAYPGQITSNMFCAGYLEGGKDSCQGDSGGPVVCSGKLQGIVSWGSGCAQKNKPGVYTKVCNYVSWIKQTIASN

[2] = molecular target: T2, Urokinase-type plasminogen activator (Homo sapiens, UniProt P00749); assay: Compound was tested for the rate constant of deacylation against Urokinase-type plasminogen activator
[3] = molecular target: T2, Urokinase-type plasminogen activator; assay: Compound was tested for the rate constant of deacylation against the enzyme Urokinase-type plasminogen activator; details: read-out: koff (s-1)
[4] = molecular target: T2, Urokinase-type plasminogen activator; assay: Compound was tested for the rate constant of deacylation against Urokinase-type plasminogen activator

Compound	koff [1]	koff [2]	koff [3]	koff [4]
NC(N)=Nc1ccc(C2CC(=O)O/C(=C\I)C2)cc1 (stereo not given)	0.00033 s⁻¹			
NC(N)=Nc1ccc(C2C/C(=C/I)OC(=O)C2NC(=O)c2ccccc2)cc1 (stereo not given)		1.3e-05 s⁻¹	1.3e-05 s⁻¹	
C=C1CC(c2ccc(N=C(N)N)cc2)C(NC(=O)c2ccccc2)C(=O)O1 (stereo not given)	0.00025 s⁻¹			3.3e-05 s⁻¹
